From PubChem BioAssay (NCI)
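Results reflect a 48-hour exposure of cells in 96-well plates to compound at five concentrations. GI50: concentration for 50% inhibition of growth. Definition used: TGI = concentration required for complete inhibition of growth.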

Columns and labels:
Assay in all cases: DTP human tumour cell line panel, 48 h
OVCAR-3 ovarian = tested on: OVCAR-3 ovarian
U251 CNS = tested on: U251 CNS
SF-268 CNS = tested on: SF-268 CNS
NCI-H522 lung = tested on: NCI-H522 lung
UACC-62 melanoma = tested on: UACC-62 melanoma
MOLT-4 leukemia = tested on: MOLT-4 leukemia
SNB-19 CNS = tested on: SNB-19 CNS
IGROV1 ovarian = tested on: IGROV1 ovarian
786-0 renal = tested on: 786-0 renal
A549 NSCLC = tested on: A549 NSCLC

Structure (SMILES)	TGI (OVCAR-3 ovarian) [µM]	TGI (U251 CNS) [µM]	TGI (SF-268 CNS) [µM]	TGI (NCI-H522 lung) [µM]	TGI (UACC-62 melanoma) [µM]	TGI (MOLT-4 leukemia) [µM]	TGI (SNB-19 CNS) [µM]	TGI (IGROV1 ovarian) [µM]	TGI (786-0 renal) [µM]	TGI (A549 NSCLC) [µM]	GI50 (OVCAR-3 ovarian) [µM]	GI50 (U251 CNS) [µM]	GI50 (SF-268 CNS) [µM]	GI50 (NCI-H522 lung) [µM]	GI50 (UACC-62 melanoma) [µM]	GI50 (MOLT-4 leukemia) [µM]	GI50 (SNB-19 CNS) [µM]	GI50 (IGROV1 ovarian) [µM]	GI50 (786-0 renal) [µM]	GI50 (A549 NSCLC) [µM]
O=C1C(c2ccc(Br)cc2)=[N+]([O-])c2ccccc21	28.2	27.9	32.3	11.8	29.7	26.6	42.3	33.8	30.9	41.2	–	–	–	–	–	–	–	–	–	–
Nc1ccc(C2=CC(c3ccc(Cl)cc3)N3C=CSC3=N2)cc1 (stereo not given)	7.43	12.1	30.7	11.3	18.1	89.7	29	6.69	25.7	53.4	2.79	2.94	11.3	3.51	4.4	4.03	11.8	2.53	6.74	3.68
COCc1c(-c2cc3cc(C)cc(OC)c3s2)c2c(N)ncnn2c1CN1CCNC(=O)C1	> 100	79.7	> 100	25.3	23.5	48.5	> 100	> 100	82.9	29.9	8.08	3.86	4.3	3.78	4.08	3.22	8.21	3.39	5.86	3.2
CC(=O)[O-].Cn1ccnc1CNCc1nccn1C.[Cu+2].[O-][Cl+3]([O-])([O-])[O-]	> 100	> 100	> 100	> 100	> 100	> 100	> 100	> 100	> 100	> 100	> 100	33.7	> 100	> 100	26.9	> 100	> 100	> 100	> 100	> 100
COc1ccc(CN2c3ccccc3Sc3ccccc32)c(C(F)(F)F)c1	24.3	27.4	98.5	2.84	> 100	43.4	> 100	> 100	> 100	68.5	0.513	0.431	10.9	0.314	0.917	2.88	3.8	3.43	9.05	0.807
COc1ccc2c(c1OC)CO[C@@H]2[C@H]1c2c(cc3c(c2OC)OCO3)CCN1S(=O)(=O)c1cn(C)cn1	4.83	> 100	> 100	8.32	> 100	> 100	> 100	> 100	> 100	> 100	1.59	2.24	5.64	0.427	0.803	3.84	1.76	1.45	0.968	1.99
CCN(Cc1ccccc1)C1CCN(Cc2cc(Br)ccc2O)CC1	> 100	> 100	> 100	40.3	> 100	> 100	> 100	> 100	> 100	> 100	80.6	32.5	59.7	17	26.6	32.6	57.2	> 100	35.9	69.6
CN(C)c1ccc2oc(=O)c3ccccc3c2c1	> 100	58.7	> 100	> 100	> 100	> 100	70.2	> 100	79.6	> 100	–	–	–	–	–	–	–	–	–	–
CCC(C)[C@H](NC(=O)Nc1cc(C(F)(F)F)cc(C(F)(F)F)c1)C(=O)N[C@@H](Cc1cn(C)cn1)C(=O)OC (stereo not given in full)	1.14	1.8	1.16	1.15	1.86	2.24	1.52	2.06	1.88	1.85	0.621	1.33	0.61	0.584	1.11	0.873	0.672	1.04	1.19	1.33
O=C(Nc1cccc(O)c1)c1ccc(NC2=C(Cl)C(=O)N(Cc3ccc(Cl)cc3Cl)C2=O)cc1	3.45	3.23	4.75	4.24	9.96	2.17	7.68	3.3	> 57	31.7	1.66	1.76	2.01	1.94	5.31	0.383	2.69	1.7	7.2	15.7
CCOC(=O)C(Cc1c[nH]c2cc([N+](=O)[O-])ccc12)NS(=O)(=O)c1ccc2ccccc2c1 (stereo not given)	31.5	32.9	43.5	30.4	31.3	> 100	> 100	48	76.1	> 100	–	–	–	–	–	–	–	–	–	–
COc1ccc2c(c1)nc(C(=O)c1ccco1)c(C(F)(F)F)[n+]2[O-]	> 100	> 100	> 100	> 100	> 100	> 100	> 100	> 100	> 100	> 100	> 100	> 100	83.8	> 100	> 100	> 100	> 100	> 100	29.2	> 100
c1ccc(C2OC3(CCC[C@H]4C[C@H]43)O[C@H]2c2ccccc2)cc1 (stereo not given in full)	> 100	> 100	> 100	67.1	> 100	63.9	> 100	> 100	> 100	> 100	–	–	–	–	–	–	–	–	–	–
COC(=O)N[C@H](C(=O)O)C(C)O[Si](C)(C)C(C)(C)C (stereo not given in full)	> 100	> 100	> 100	> 100	> 100	> 100	> 100	> 100	> 100	> 100	–	–	–	–	–	–	–	–	–	–
